Laboratory results reported in patent US11548925B2, “CACNA1H-derived tumor antigen polypeptide and use thereof” (Genoimmune Therapeutics Co., Ltd., priority 2016, dated 2023).

What was measured:
[1] = test system: H2087-TLISSLMPI (SEQ ID NO: 2) subcutaneous tumor; assay: Peptide-specific DC-CTL vaccine in H2087-[…] tumor model; format: in vivo, NOD/SCID mice; conditions: DC-CTL activated by peptide, tail vein, about 1×10^8 cells; vs wild-type peptide group
Protocol: The human non-small cell lung adenocarcinoma cell line H2087-[…] (SEQ ID NO: 2) as established in Example 7 was cultured in DMEM medium containing 10% fetal bovine serum, 100 U/mL penicillin and 100 U/mL streptomycin in an incubator at 37° C., 5% CO2. H2087-[…] (SEQ ID NO: 2) tumor cells were collected, centrifuged at 1500 rpm for 5 min, and washed 3 times with sterile physiological saline. The tumor cells were diluted appropriately. To 40 μl of cell suspension was added 10 μl of 0.4% […] for staining and microscopically counting cells. A tumor cell suspension at a concentration of 1*10^8 cells/ml was prepared. 100 μl of the tumor cell suspension was inoculated subcutaneously into a NOD/SCID mouse or an immune-reconstituted NOD/SCID mouse. […] The long diameter a and the short diameter b of the tumor were measured with a vernier caliper every 2-3 days and the size of the tumor was calculated as a*b*b/2. The mice and tumors were weighed and recorded every day. […] The tumor volume and the survival rate of mice were recorded every 2 days. […]
The collected PBLs were subjected to magnetic bead sorting to obtain CD8+ T cells, which were sensitized by co-incubation with DCs loaded with the wild-type peptide, DCs loaded with the mutant peptide […] […] The number of lymphocytes was counted and a cell proliferation index (PI) was calculated on days 0, 7, 14, and 21 of culture, respectively. […]

CD8+ T cells [2] = assay: ELISPOTs detection of IFN-γ secretion by peptide-specific CD8+ T cells; format: cell-based, human
Text: In this example, a ELISPOTs detection kit (Cat. No.: 3420-4AST-10, MABTECH) was used to verify the activation of an immune response of CD8+ T cells by the peptides of the present invention.
Principle of the ELISPOTs detection method is as follows: CD8+ T cells can specifically recognize the complex of HLA-A0201 and a peptide. The population of T cells recognizing the complex of the peptide and HLA-A0201 is varying, depending on the peptide sequence. Since T2 cells express HLA-A0201, CD8+ T cells can specifically recognize the T2 cells loaded with a peptide. After specific recognition of the complex of HLA-A0201 and the peptide, peptide-specific CD8+ T cells can be activated again to secrete IFN-γ interferon. The IFN-γ interferon secreted by the activated CD8+ T cells can be captured by antibodies on the ELISPOTs plate. Finally, the enzyme-conjugated antibody that recognizes IFN-γ can degrade the substrate through the enzyme conjugated thereto and develop color, eventually producing spots. The number of spots represents the number of cells that are activated to secrete IFN-γ interferon.
The cultured cells from Example 3 were added, along with T2 cells loaded with the mutant peptide […] (SEQ ID NO: 2) of the present invention and the wild-type peptide […] (SEQ ID NO: 1), respectively, into ELISPOTs plates, and cultured for 20 h, and then a ELISPOTs detection was performed (see the kit instruction). Finally, the spots produced by the ELISPOTs detection were counted.
The peptide was determined to have immunogenicity when the number of spots of the tested peptide/the number of spots of an unrelated peptide>2; that is, if the number of spots caused by the tested peptide is more than twice than that of an unrelated peptide, the tested peptide is determined to have immunogenicity.

CD8+ T cells [3] = assay: as above; format: cell-based, human; conditions: ratio of spot numbers; >2 immunogenic
T2 cells = assay: LDH release assay, killing of peptide-loaded T2 target cells by CD8+ T cells; format: cell-based, human; conditions: for Killing efficiency: 4 h
Protocol: The cells cultured in Example 3 were co-cultured with T2 cells loaded with the mutant peptides of the present invention or the wild-type peptide or without a peptide. A maximum release well, a volume correction well, a medium control well, a spontaneous release well and control wells for example at different effector-to-target ratios (ratios of T cells to T2 cells) were set in this experiment. Three replicate wells were set for each group. After 4 h, 50 μl of the co-culture supernatant was taken out and added to 50 μl of LDH substrate mixture to catalyze the reaction of LDH substrate. Finally, the plates were read at a wavelength of 490 nm, with a reference wavelength of 680 nm, and the killing activity against target cells T2 was calculated based on the control wells.
The formula for calculating the killing activity is: Killing efficiency (%)=(test well−spontaneous release of effector cells−spontaneous release of target cells+medium well)/(maximum release of target cells−volume correction well−spontaneous release of target cells+medium well)×100%

TLISSLMPI [tumor antigen peptide from CACNA1H mutation, position 1428 arginine to methionine]
Survival period of mice [1]: prolonged the survival period of mice | Tumor-suppressing effect [1]: significant tumor-suppressing effects | Conclusion (immunogenicity) (CD8+ T cells [2]; ELISPOTs): immunogenic | Number of spots in the mutant peptide group (CD8+ T cells [2]; T cells activated by the listed peptide, T2 cells loaded with TLISSLMPI, 20 h): 306 | Number of spots in the wild-type peptide group (CD8+ T cells [2]; T cells activated by the listed peptide, T2 cells loaded with TLISSLRPI, 20 h): 33 | Fold (tested/wild-type) (CD8+ T cells [3]): 9.27 | Killing efficiency (T2 cells; effector-to-target ratio 1:1, target T2 loaded with TLISSLMPI): 7.96% | Killing efficiency (T2 cells; effector-to-target ratio 1:1, target T2 loaded with wild-type TLISSLRPI): 2.23% | Killing efficiency (T2 cells; effector-to-target ratio 10:1, target T2 loaded with TLISSLMPI): 38.89% | Killing efficiency (T2 cells; effector-to-target ratio 10:1, target T2 loaded with wild-type TLISSLRPI): 4.23% | Specific killing of target cells (in words) (T2 cells; effector-to-target ratio of 1:1 or 1:10 as printed): capable of killing T2 cells presenting the mutant peptide, but not the T2 cells presenting a wild-type peptide
